# Test results taken from patent US12325708B2, “Adenosine 2 receptor antagonists” (Nektar Therapeutics, priority 2019, dated 2025).
# Like-named read-outs stand apart in the source and are kept apart here.
# How the values were obtained:
# A2A receptor = target: T1, A2A receptor (Homo sapiens, UniProt P29274); assay: Radioligand receptor binding assay, A2A receptor; details: cell membranes overexpressing A2A receptor, read-out: Potency Ki A2A
# T1 construct: purchased
# Procedure, shortened: (§1)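 Membranes from cell lines overexpressing human A2A, A1 or A3 receptors were incubated 60 min at room temperature with the receptor-appropriate [3H] tracer. After filtration and washing in 50 mM Tris HCl pH 7.5, bound label was counted by scintillation. IC50 came from nonlinear regression and Ki from the Cheng-Prusoff equation.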
# A1 receptor = target: T2, A1 receptor (Homo sapiens, UniProt P30542); assay: Radioligand receptor binding assay, A1 receptor; details: cell membranes overexpressing A1 receptor, read-out: Potency Ki A1
# T2 construct: purchased
# T2 sequence (P30542 1-326): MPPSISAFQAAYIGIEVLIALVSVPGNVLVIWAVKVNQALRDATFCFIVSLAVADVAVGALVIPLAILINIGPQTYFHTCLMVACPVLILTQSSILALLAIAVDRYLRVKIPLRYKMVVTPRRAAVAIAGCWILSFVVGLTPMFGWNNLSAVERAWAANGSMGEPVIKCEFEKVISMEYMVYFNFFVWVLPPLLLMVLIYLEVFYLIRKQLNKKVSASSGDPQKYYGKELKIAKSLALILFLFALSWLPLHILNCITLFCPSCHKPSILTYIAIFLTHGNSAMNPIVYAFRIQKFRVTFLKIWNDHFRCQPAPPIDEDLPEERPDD
# Procedure, shortened: as §1
# [1] = Plasma pharmacokinetic parameters following intravenous (IV) or oral (PO) administration in rats; type: in vivo, Sprague-Dawley rats; details: rat; for Vd: read-out: Vss obs; for AUC / bioavailability: oral; for Total clearance as % liver blood flow: IV; for Plasma concentrations post 8 hr: IV 0.5 mg/kg and PO 2.5 mg/kg; for F: PO 2.5 mg/kg vs IV 0.5 mg/kg
# Procedure, shortened: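 Fasted male Sprague-Dawley rats (230-250 g, n=2/group), dosed 0.5 mg/kg IV (jugular) or 2.5 mg/kg PO gavage in water. Plasma sampled 2–1440 min, analyzed by LC-MS/MS; non-compartmental analysis with nominal doses/times gave AUC, Cmax, Tmax, CL, Vss, MRTlast, F.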
# [2] = male, Sprague-Dawley, plasma, intravenous, 0.5 mg/kg, Table 2 summary of Example 27, values marked 1 are the average of experiments
# [3] = male, Sprague-Dawley, plasma, iv, 0.5 mg/kg, IV 0.5 mg/kg, injectable water
# [4] = male, Sprague-Dawley, plasma, 2.5 mg/kg, Table 2 summary of Example 27, values marked 1 are the average of experiments
# [5] = male, Sprague-Dawley, plasma, po, 2.5 mg/kg, PO 2.5 mg/kg via gavage, injectable water
# [6] = male, Sprague-Dawley, plasma, po, 2.5 mg/kg, PO 2.5 mg/kg via gavage, injectable water, read-out: Cmax
# [7] = male, Sprague-Dawley, plasma, po, 2.5 mg/kg, PO 2.5 mg/kg via gavage, injectable water, read-out: Tmax
# [8] = IV 0.5 mg/kg, injectable water, listed as Compound 1 (#1), 0.5 mg/kg
# [9] = IV 0.5 mg/kg, injectable water, listed as Compound 1 (#2), 0.5 mg/kg
# [10] = PO 2.5 mg/kg via gavage, injectable water, listed as Compound 1 (#1), 2.5 mg/kg
# [11] = PO 2.5 mg/kg via gavage, injectable water, listed as Compound 1 (#2), 2.5 mg/kg
# [12] = IV 0.5 mg/kg, injectable water, listed as Compound 4 (#2), 0.5 mg/kg
# [13] = PO 2.5 mg/kg via gavage, injectable water, listed as Compound 4 (#2), 2.5 mg/kg
# T1 sequence (P29274 whole entry): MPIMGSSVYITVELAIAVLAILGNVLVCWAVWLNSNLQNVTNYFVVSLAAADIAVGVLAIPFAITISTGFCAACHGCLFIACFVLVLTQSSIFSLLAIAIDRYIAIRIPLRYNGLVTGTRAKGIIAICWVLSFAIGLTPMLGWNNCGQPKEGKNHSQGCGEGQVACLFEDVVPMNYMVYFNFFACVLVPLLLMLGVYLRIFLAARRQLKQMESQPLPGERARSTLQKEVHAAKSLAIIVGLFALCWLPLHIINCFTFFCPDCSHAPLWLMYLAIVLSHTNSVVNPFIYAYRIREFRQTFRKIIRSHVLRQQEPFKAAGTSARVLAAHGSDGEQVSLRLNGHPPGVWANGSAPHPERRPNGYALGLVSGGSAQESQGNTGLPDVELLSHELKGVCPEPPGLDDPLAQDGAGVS
SMILES,Ki (A2A receptor),Ki (A1 receptor),"clearance [1, 2]","AUC(0-inf) [1, 3]","AUC(0-t) [1, 3]","MRT last [1, 3]","clearance [1, 3]","Vd [1, 3]","AUC [1, 4]","bioavailability [1, 4]","AUC(0-inf) [1, 5]","AUC(0-t) [1, 5]","Cmax [1, 6]","Tmax [1, 7]",Total clearance as % liver blood flow [1],Plasma concentrations post 8 hr [1],also measured
"COCCOc1ccc(N2CCN(CCN(C)c3cc4nc(-c5ncco5)nn4c(N)n3)CC2)cc1 [Compound 1, N^7-(2-{4-[4-(2-methoxyethoxy)phenyl]piperazin-1-yl}ethyl)-N^7-methyl-2-(1,3-oxazol-2-yl)[1,2,4]triazolo[1,5-c]pyrimidine-5,7-diamine]",0.006 µM,50 µM,31 mL/min/kg,340 ng·h/mL,335 ng·h/mL,84.6 to 87 min,24.6 to 36.1 mL/min/kg,2.17 to 3.44 L/kg,969 ng·h/mL,71%,1280 ng·h/mL,1220 ng·h/mL,242 to 367 ng/mL,45 to 60 min,40-60 % liver blood flow,below the limit of quantitation,"Cmax ([1]; male, Sprague-Dawley, plasma, iv, 0.5 mg/kg, IV 0.5 mg/kg, injectable water, read-out: Cmax): 311 ng/mL; Tmax ([1]; male, Sprague-Dawley, plasma, iv, 0.5 mg/kg, IV 0.5 mg/kg, injectable water, read-out: Tmax): 2 min; AUCinf [1, 8]: 233 ng·h/mL; AUClast [1, 8]: 228 ng·h/mL; CL [1, 8]: 36.1 mL/min/kg; Cmax [1, 8]: 207 ng/mL; MRTlast [1, 8]: 84.6 min; Vss obs [1, 8]: 3.44 L/kg; CL [1, 9]: 24.6 mL/min/kg; MRTlast [1, 9]: 87 min; Vss obs [1, 9]: 2.17 L/kg; AUCinf [1, 10]: 777 ng·h/mL; AUClast [1, 10]: 718 ng·h/mL; Cmax [1, 10]: 242 ng/mL; Tmax [1, 10]: 45 min; Cmax [1, 11]: 367 ng/mL; Tmax [1, 11]: 60 min; F ([1]; listed as Compound 1 (#1)): 66.8%; F ([1]; listed as Compound 1 (#2)): 75.5%"
"COCCOc1cnc(N2CCN(CCN(C)c3cc4nc(-c5ncco5)nn4c(N)n3)CC2)c(F)c1 [Compound 4, N^7-(2-{4-[3-fluoro-5-(2-methoxyethoxy)pyridin-2-yl]piperazin-1-yl}ethyl)-N^7-methyl-2-(1,3-oxazol-2-yl)[1,2,4]triazolo[1,5-c]pyrimidine-5,7-diamine]",0.002 µM,14 µM,34 mL/min/kg,251 ng·h/mL,249 ng·h/mL,53.4 min,26.8 to 33.6 mL/min/kg,1.93 L/kg,898 ng·h/mL,78%,978 ng·h/mL,898 ng·h/mL,231 ng/mL,30 to 45 min,45-56 % liver blood flow,below the limit of quantitation,"MRT last [1, 5]: 153 min; CL ([1]; IV 0.5 mg/kg, injectable water, listed as Compound 4 (#1), 0.5 mg/kg): 33.6 mL/min/kg; AUCinf [1, 12]: 312 ng·h/mL; AUClast [1, 12]: 310 ng·h/mL; CL [1, 12]: 26.8 mL/min/kg; MRTlast [1, 12]: 54.8 min; Tmax ([1]; PO 2.5 mg/kg via gavage, injectable water, listed as Compound 4 (#1), 2.5 mg/kg): 45 min; AUCinf [1, 13]: 707 ng·h/mL; AUClast [1, 13]: 662 ng·h/mL; Cmax [1, 13]: 172 ng/mL; Tmax [1, 13]: 30 min; F ([1]; listed as Compound 4 (#1)): 77.8%; F ([1]; listed as Compound 4 (#2)): 45.4%"
